Test results reported in patent US20240287564A1, “ACHOLETIN BIOPOLYMERS AND METHODS FOR ENZYMATIC SYNTHESIS” (THE UNIVERSITY OF BRITISH COLUMBIA, priority 2021, published 2024).

What was measured:
AchP [1] = target: T1, AchP (Acholeplasma laidlawii, UniProt A9NH41); test: AchP reverse phosphorolysis kinetics (phosphate release, molybdenum blue); assay type: biochemical
Experimental: (§1) Kinetic parameters for AchP reverse phosphorolysis were determined using the phosphate release method described previously^44. In brief, phosphate release was coupled to the formation of molybdenum blue, which can be quantified by measuring absorbance at 655 nm. Phosphate concentration was determined using a standard curve ranging between 0 and 10 mM phosphate. Kinetic parameters for AchP were determined with four donor and acceptor combinations: (A) Glc1-P and GlcNAc, (B) Glc1-P and GalNAc, (C) GlcNAc1-P and GlcNAc, and (D) GlcNAc1-P and GalNAc. Donor concentration was held constant at 10 mM while the concentrations of the acceptors were varied (as described below). Reactions were initiated by adding 5 μL of 0.25 mg/mL AchP to 10 μL 2× buffer (200 mM HEPES pH 7.0, 200 mM NaCl, 10 mM MgSO4 and 400 mM sodium molybdate), 2.5 μL of 100 mM donor, 2.5 μL of […] acceptor and 5 μL water. Reactions were stopped at the times (t) indicated below by boiling for 5 min, then 20 μL from each reaction was transferred to a 96-well plate. Molybdenum blue formation was initiated by adding 90 μL of color development solution (0.1 N HCl and 0.24% sodium ascorbate) then incubated for 30 min at room temperature. The color development reaction was stopped by adding 90 μL of quenching solution (68 mM sodium citrate and 2% acetic acid). Absorbance at 655 nm was measured with a BioTek Synergy H1 Hybrid™ microtiter plate reader. All reactions were performed in triplicate and acceptor concentrations were chosen to encompass apparent Km value where possible. (A) 10 mM Glc1-P; 0, 1, 5, 10, 25, 50, 100, 200 and 300 mM GlcNAc; t=2 min 45 s. (B) 10 mM Glc1-P; 0, 5, 25, 50, 100, 150, 200, 300 and 380 mM GalNAc; t=5 min. (C) 10 mM GlcNAc1-P; 0, 0.1, 0.25, 0.5, 1, 2, 5, 10, 25 and 50 mM GlcNAc; t=3 min. (D) 10 mM GlcNAc1-P; 0, 5, 10, 25, 50, 100, 150, 200 and 300 mM GalNAc; t=3 min. Non-linear regression was performed using GraphPad Prism™ version 6.0. For (A) and (C) data were fit using the Michaelis-Menten equation incorporating substrate inhibition: For (B) and (D) data were fit using the standard Michaelis-Menten equation: […]

AchP [2] = target: T1, AchP; test: Purified AchP donor and acceptor specificity screen; assay type: biochemical; details: 3 h room temperature, absorbance 655 nm
Experimental: AchP was heterologously expressed, purified and screened, in the absence of cell lysate, against an extended set of donors and acceptors, including additional N-acetamido sugars, using a phosphorylase screening method described previously that couples the chromogenic development of molybdenum blue to the liberation of free phosphate during reverse phosphorolysis^39,41 (FIG. 1A). When incubated with Glc1-P as donor, AchP was active in the presence of the acceptors GlcNAc, GlcNAc-β1-pNP, GalNAc and GlcNAc-β1,4-GlcNAc, while no activity was detected with the non-acetylated glucosamine and galactosamine. With GlcNAc1-P as donor, AchP was active with all acceptors that contained an N-acetyl moiety, as well as with glucose and glucosamine, but not galactose and galactosamine.
Thirty-six donor and acceptor combinations were done with purified AchP in a 25 μL reaction volume. 10 μL buffer (200 mM HEPES pH 7.0, 200 mM NaCl, 10 mM MgSO4, 400 mM sodium molybdate) was combined with 5 μL water, 2.5 μL donor (100 mM Glc1-P, 100 mM GlcNAc1-P or 100 mM GalNAc1-P) and 2.5 acceptor (500 mM Glc, 400 mM GlcN, 500 mM GlcNAc, 100 mM GlcNAc-β1-pNP, 500 mM Gal, 500 mM GalN, 500 mM GalNAc, 100 mM GalNAc-α1-pNP, 100 mM Glc-β1,3-Glc, 100 mM GlcNAc-β1,4-GlcNAc, 500 mM ManNAc or no acceptor) in a 200 μL PCR tube. 5 μL of purified AchP (0.2 mg/mL) was added to each reaction which were then incubated for 3 h at room temperature. Each 25 μL reaction was transferred to a separate well of a 96-well plate. 75 μL of development solution was added to each well then incubated for 5 min at room temperature before the reaction was stopped by adding 50 μL of quenching solution. Absorbance at 655 nm was measured with a BioTek Synergy H1 Hybrid™ microtiter plate reader.

[3] = target: GH101 endo-α-N-acetylgalactosamindase (EngSP) (Streptococcus pneumoniae, UniProt Q8DR60); details: only minimal aglycone release in controls
Sequence of GH101 endo-α-N-acetylgalactosamindase (EngSP) (Q8DR60 40-1738 limits assumed): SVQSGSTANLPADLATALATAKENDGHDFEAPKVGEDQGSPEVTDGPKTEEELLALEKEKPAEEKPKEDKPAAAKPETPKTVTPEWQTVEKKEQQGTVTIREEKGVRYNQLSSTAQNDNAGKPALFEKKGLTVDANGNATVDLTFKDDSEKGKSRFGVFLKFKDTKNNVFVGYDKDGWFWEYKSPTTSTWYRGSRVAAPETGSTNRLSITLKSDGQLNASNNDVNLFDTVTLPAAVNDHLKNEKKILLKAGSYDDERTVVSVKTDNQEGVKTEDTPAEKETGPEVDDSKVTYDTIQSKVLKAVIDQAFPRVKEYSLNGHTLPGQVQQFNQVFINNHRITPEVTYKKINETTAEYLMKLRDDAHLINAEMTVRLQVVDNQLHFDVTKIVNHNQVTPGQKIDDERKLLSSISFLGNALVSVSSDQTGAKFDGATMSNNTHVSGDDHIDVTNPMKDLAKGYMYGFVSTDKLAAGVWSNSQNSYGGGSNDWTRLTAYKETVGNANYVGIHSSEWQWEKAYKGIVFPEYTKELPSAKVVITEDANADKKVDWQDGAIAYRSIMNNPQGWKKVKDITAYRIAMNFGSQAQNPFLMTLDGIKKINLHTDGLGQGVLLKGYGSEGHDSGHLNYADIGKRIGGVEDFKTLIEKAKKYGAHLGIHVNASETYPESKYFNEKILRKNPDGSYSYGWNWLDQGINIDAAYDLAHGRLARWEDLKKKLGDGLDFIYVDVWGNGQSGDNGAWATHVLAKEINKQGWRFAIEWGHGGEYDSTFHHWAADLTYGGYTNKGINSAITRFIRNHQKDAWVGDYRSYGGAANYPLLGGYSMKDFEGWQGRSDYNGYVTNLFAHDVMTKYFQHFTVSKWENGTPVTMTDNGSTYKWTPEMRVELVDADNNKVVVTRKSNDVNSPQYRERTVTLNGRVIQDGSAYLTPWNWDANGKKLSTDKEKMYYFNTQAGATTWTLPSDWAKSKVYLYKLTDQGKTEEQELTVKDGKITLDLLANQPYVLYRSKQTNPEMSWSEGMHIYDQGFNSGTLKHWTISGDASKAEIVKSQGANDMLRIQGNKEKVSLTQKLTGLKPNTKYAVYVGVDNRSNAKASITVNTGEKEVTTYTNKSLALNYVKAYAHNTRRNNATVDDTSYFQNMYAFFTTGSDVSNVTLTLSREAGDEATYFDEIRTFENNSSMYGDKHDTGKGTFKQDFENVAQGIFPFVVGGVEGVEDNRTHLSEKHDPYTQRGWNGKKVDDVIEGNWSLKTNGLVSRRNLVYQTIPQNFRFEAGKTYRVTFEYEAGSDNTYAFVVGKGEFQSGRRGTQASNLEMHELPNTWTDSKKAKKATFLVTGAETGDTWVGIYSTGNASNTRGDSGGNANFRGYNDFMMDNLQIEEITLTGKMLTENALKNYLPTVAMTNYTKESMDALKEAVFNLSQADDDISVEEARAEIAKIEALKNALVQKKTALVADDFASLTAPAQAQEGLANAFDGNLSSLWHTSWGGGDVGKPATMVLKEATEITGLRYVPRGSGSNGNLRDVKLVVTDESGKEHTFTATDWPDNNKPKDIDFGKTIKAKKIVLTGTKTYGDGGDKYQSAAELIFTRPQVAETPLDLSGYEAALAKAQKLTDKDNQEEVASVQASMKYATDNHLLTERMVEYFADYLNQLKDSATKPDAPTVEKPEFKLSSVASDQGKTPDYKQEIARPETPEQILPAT
Experimental: Both GlcNAc-β1,3-GalNAc-MU and GlcNAc-β1,3-GalNAc-pNP were assayed as potential substrates for the core 3 T-antigen cleaving enzyme endo-α-N-acetylgalactosaminidase from Streptococcus pneumoniae R6 (EngSP)^47,66. For GlcNAc-β1,3-GalNAc-MU, in a 96-well plate 2 μL of the AchP reaction was combined with 48 μL reaction buffer A and reaction initiated by adding 0.4 μL spGH101 (10 mg/mL). Release of MU was monitored continuously in a BioTek Synergy H1 Hybrid™ microtiter plate reader (Ex. 365 nm, Em. 440 nm) (FIG. 6). For GlcNAc-β1,3-GalNAc-pNP, in a 96-well plate 10 μL of the AchP reaction was combined with 39 μL reaction buffer A and initiated by adding 1 μL EngSP (10 mg/mL). Release of pNP was monitored continuously in a BioTek Synergy H1 Hybrid™ microtiter plate reader (absorbance 400 nm) (FIG. 6).

AchP [4] = target: T1, AchP; test: AchP forward phosphorolysis product analysis (TLC); assay type: biochemical; details: with phosphate
Experimental: (A) AchP products with GlcNAc1-P (donor) and GlcNAc (GNAc1), GlcNAc-β1,4-GlcNAc (GNAc2), or GlcNAc(-β1,4-GlcNAc)3 (GNAc4) (acceptors) were analyzed by TLC, where the products are outlined in black boxes. (B) AchP forward phosphorolysis product analysis with GlcNAc-β1,4-GlcNAc and phosphate and the reverse phosphorolysis with Glc1-P and GlcNAc was include as a control reaction.
Of the six activities described to date in the GH94 family only the N,N′-diacetylchitobiose phosphorylases (ChbP) are known to use GlcNAc1-P as donor, transferring only to monosaccharide GlcNAc acceptors and not to di- or trisaccharides. The other five types utilize Glc1-P. The bacteria from which both characterized ChbPs were discovered are native to marine environments where chitin, a polysaccharide of β1,4-linked GlcNAc and the primary structural component of the exoskeleton of marine invertebrates, is common. Presumably these ChbPs act on disaccharides released from chitin by chitinases. AchP on the other hand is able to utilize GlcNAc-β1,4-GlcNAc and GlcNAc(-β1,4-GlcNAc)3 as acceptors performing iterative addition of N-acetylglucosaminyl residues (FIG. 4A). As noted earlier, we initially anticipated that AchP was a chitin phosphorylase. […]

AchP [5] = target: T1, AchP; test: AchP reverse phosphorolysis kinetics (phosphate release, molybdenum blue); assay type: biochemical; details: as donor (GalNAc1-P) or acceptor (glucose); reasonable substrate and enzyme concentrations
[6] = substrate: CC(=O)NC1C(O)[C@@H](O)C(CO)O[C@@H]1O; test: as above; assay type: biochemical, Acholeplasma laidlawii; details: other: donor αGlcNAc1-P 10 mM; acceptor concentration varied; pH 7.0
Experimental: as §1

[7] = substrate: CC(=O)NC1C(O)[C@H](O)C(CO)O[C@H]1O; test: as above; assay type: biochemical, Acholeplasma laidlawii; details: acceptor concentration varied, pH 7.0
Experimental: as §1

## CC(=O)NC1C(O)[C@@H](O)C(CO)O[C@@H]1O (stereo partly drawn) [GalNAc, N-acetylgalactosamine]
AchP [1]; donor αGlc1-P 10 mM, acceptor concentration varied
  kcat: 12.5 ± 0.5 s⁻¹
AchP [2]; Glc1-P as donor
  AchP activity with acceptor: active

## CC(=O)NC1C(O)[C@H](O)C(CO)O[C@H]1O (stereo partly drawn) [GlcNAc, N-acetyl-glucosamine]
AchP [1]; donor αGlcNAc1-P 10 mM, substrate inhibition fit
  Ki: 27.1 ± 3.6 mM
AchP [2]; Glc1-P as donor
  AchP activity with acceptor: active

## N[C@H]1C(O)O[C@H](CO)[C@@H](O)[C@@H]1O (stereo partly drawn) [glucosamine]
AchP [2]; Glc1-P as donor
  AchP activity with acceptor: no activity
AchP [2]; GlcNAc1-P as donor
  AchP activity with acceptor: active

## CC(=O)NC1C(OC2C(O)C(CO)OC(Oc3ccc4c(C)cc(=O)oc4c3)C2NC(C)=O)OC(CO)C(O)C1O (stereo not drawn) [GlcNAc-β1,3-GalNAc-α1-MU]
[3]
  aglycone release after incubation with EngSP: release of both pNP and MU aglycones could be detected

## CC(=O)N[C@H]1[C@H](O[C@H]2[C@H](O)[C@@H](NC(C)=O)C(O)O[C@@H]2CO)O[C@H](CO)[C@@H](O)[C@@H]1O (stereo partly drawn) [GlcNAc-β1,4-GlcNAc, N,N′-diacetylchitobiose]
AchP [2]; Glc1-P as donor
  AchP activity with acceptor: active
AchP [4]
  phosphorolysis (substrate cleavage): no substrate cleavage could be detected

## CC(=O)N[C@H]1C(OP(=O)(O)O)O[C@H](CO)[C@H](O)[C@@H]1O (stereo partly drawn) [GalNAc1-P]
AchP [5]
  Activities (kinetic parameters not determined): too low

## O=C[C@H](O)[C@@H](O)[C@@H](O)[C@H](O)CO [galactose, D-galactose]
AchP [2]; GlcNAc1-P as donor
  AchP activity with acceptor: not

## N[C@H]1C(O)O[C@H](CO)[C@H](O)[C@@H]1O (stereo partly drawn) [galactosamine]
AchP [2]; Glc1-P as donor
  AchP activity with acceptor: no activity
AchP [2]; GlcNAc1-P as donor
  AchP activity with acceptor: not

## CC(=O)N[C@H]1[C@H](Oc2ccc([N+](=O)[O-])cc2)O[C@H](CO)[C@@H](O)[C@@H]1O [GlcNAc-β1-pNP]
AchP [2]; Glc1-P as donor
  AchP activity with acceptor: active

## CC(=O)N[C@H]1[C@@H](OP(=O)(O)O)O[C@H](CO)[C@@H](O)[C@@H]1O [GlcNAc1-P, α-N-acetylglucosamine 1-phosphate]
AchP [1]; GlcNAc as acceptor
  Km value lower than with Glc1-P as donor: ~10 fold
  kcat greater than with Glc1-P as donor: 2 fold

## OC[C@H]1O[C@@H](O[C@H]2[C@H](O)[C@@H](CO)OC(O)[C@@H]2O)[C@H](O)[C@@H](O)[C@@H]1O (stereo partly drawn) [laminaribiose]
AchP [2]; Glc1-P as donor
  AchP activity with acceptor: no activity

## CC(=O)NC1C(OC2C(O)C(CO)OC(Oc3ccc([N+](=O)[O-])cc3)C2NC(C)=O)OC(CO)C(O)C1O (stereo not drawn) [GlcNAc-β1,3-GalNAc-α1-pNP]
[3]
  aglycone release after incubation with EngSP: release of both pNP and MU aglycones could be detected

B1: AchP (Acholeplasma laidlawii PG-8A) (protein)
chain: MKLKQDVISIYQKISLFESGQLNITKLASGAYYLDDELTLITDPVNSGARFPYAVNGMTIWAYASGYISINHSSYYILPPNLEGKEPFLDFFGIEQDGNNTYPVSLLGVSERNDEIENKRYTVFSKNIAYYITVTKNFLYAVTVYISKDFKIYFNTVAHNLTGETKQITLSSFFNMLFKYDSGESIETKWFKKVSYENNMFIYDAPEDIDRHTRIENYGVVKRHLHTKPKNIQNTTSRIDYVGKRYRSVRNALSIRSLKFEKAPLVTNFTDTAINADLINYEVKAYDTIISSYRIETCHDKDTLNKMMASDLTDKEIKKVYEGLSNTQSYDFDNFGISFKGVNDNRVDDKVLNQFLKLVNYQIHFSSLSSNSGTVFLGVRDVMQQLESSLIWDRKNVRSKILEVLSFIDPSGLPPRQYALPPKEGNPRMDLRPFIDQGLWIISTLHTYLAYTEDYDILNEVCGYYERIEPNSAKKSKVENSVLEHLIRVTNYLVSNIDPSTYGLKALYGDWNDALDGLGLIEGSSGYGNGVSVMATLQLYENLERMIEILKLVDPQNEHINTYEVVRHNLSLGINKYAVVIKQDEKRVLHGWGHDRSYFVGSFNDPDGHSRNSLTSNAFYIISDMIKNTPEMKPHLLHAFHNLDSKYGLKTFDPAMQDFHGFGRIINLPPGTAENAATYVHATLFGVLALYMLGEGDFANEQVLKVLPITKKEMSTSPFIMPNSYVHNEELNMDGESMSDWYTGSANTLLKTLIRGLFGLEVKFDHLRLRPSKAFFSKEATLMVSIGNKLTRIVYKNNNNGNRTFKLNGKVIEAKLDTLSGLLYIDINKSILEHQNVIHIQD
[6]
  Km: 71.4 ± 4.1 mM
  kcat: 46.7 ± 0.9 s⁻¹
  kcat/Km: 700 ± 200 M⁻¹ s⁻¹
[7]; other: donor αGlc1-P 10 mM
  Km: 29.9 ± 3.7 mM
  kcat: 24.2 ± 1.6 s⁻¹
  kcat/Km: 800 ± 400 M⁻¹ s⁻¹
[7]; other: donor αGlcNAc1-P 10 mM
  Km: 3.5 ± 0.4 mM
  kcat: 50.8 ± 3.2 s⁻¹
  kcat/Km: 14500 ± 8000 M⁻¹ s⁻¹
